The source of these data is patent publication US8309584B2, “Sulfur containing pyrazole-heterocycle derivatives as cannabinoid CB1 receptor antagonists” (Green Cross Corporation, priority 2008, dated 2012).

In one experiment the target is T1, rat CB-1 receptor (Rattus norvegicus, UniProt P20272).
T1 construct: The tissue obtained from the brain of SD rats was homogenized; from tissue; host or cells: SD rat brain membrane homogenate
T1 sequence (P20272 whole entry): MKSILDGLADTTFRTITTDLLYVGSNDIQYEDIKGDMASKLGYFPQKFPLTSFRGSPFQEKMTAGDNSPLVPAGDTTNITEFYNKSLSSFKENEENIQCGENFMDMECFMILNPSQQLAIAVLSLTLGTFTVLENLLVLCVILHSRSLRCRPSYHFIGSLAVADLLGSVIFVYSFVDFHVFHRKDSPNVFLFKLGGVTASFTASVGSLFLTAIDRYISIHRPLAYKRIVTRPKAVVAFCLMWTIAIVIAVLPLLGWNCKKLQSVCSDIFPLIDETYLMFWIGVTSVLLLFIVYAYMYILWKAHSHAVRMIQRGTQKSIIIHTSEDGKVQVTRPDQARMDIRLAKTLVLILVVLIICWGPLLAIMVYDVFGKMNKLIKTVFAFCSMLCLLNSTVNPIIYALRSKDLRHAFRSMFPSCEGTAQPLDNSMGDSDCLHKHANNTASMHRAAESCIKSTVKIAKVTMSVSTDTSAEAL
Description: rat cannabinoid-1 receptor (CB1R) binding affinity assay.
Settings: not given
The protocol: The tissue obtained from the brain of SD rats was homogenized with a Dounce homogenate system in TME(50 mM Tris, 3 mM MgCl2 and 1 mM EDTA, pH 7.4) at 4° C., and the homogenate was centrifuged at 48,000 g for 30 min. at 4° C. The pellet was resuspended in 5 ml of TME and the suspension was divided into aliquots and stored at −70° C. until its use in the following assay.
The tissue concentrations were determined by Bradford protein analysis, and 148 μl of brain tissue of the required concentration was added to the plate. The plate was covered and placed in a 30° C. incubator for 60 min, and then transformed on GF/B filtermat pretreated in polyethylenimine (PEI) using a cell harvester. Each filter was washed five times and dried at 60° C. for 1 hr. Then, the degree of radioactivity retained by the filter was measured using Wallac Microbeta™ (PerkinElmer Life Sciences, Inc., Massachusetts, U.S.A.) and the activity of the compound for inhibiting CB1 receptor was determined therefrom.
The IC50 is the midpoint of a concentration-inhibition curve. Regarding `CS(=O)(=O)c1c(-c2nnc(C3(C(F)(F)F)CCC3)o2)nn(-c2ccc(Cl)cc2Cl)c1-c1ccc(Cl)cc1` [Example 82, 2-(5-(4-chlorophenyl)-1-(2,4-dichlorophenyl)-4-(methylsulfonyl)-1H-pyrazol-3-yl)-5-(1-(trifluoromethyl)cyclobutyl)-1,3,4-oxadiazole], the IC50 amounted to 6.79 nM.

Staying with this experiment, now noted: [3H]CP-55940 radioligand, SD rat brain tissue homogenate, 30° C., 60 min; read-out: IC50.
Consider `C[S+]([O-])c1c(-c2nnc(C3(C(F)(F)F)CC3)o2)nn(-c2ccc(Cl)cc2Cl)c1-c1ccc(Cl)cc1` (centres unmarked) [Example 42, 2-(5-(4-chlorophenyl)-1-(2,4-dichlorophenyl)-4-(methylsulfinyl)-1H-pyrazol-3-yl)-5-(1-(trifluoromethyl)cyclopropyl)-1,3,4-oxadiazole], for which the IC50 was 24.6 nM.

Take `C[S+]([O-])c1c(-c2nnc(C3(C(F)(F)F)CCC3)o2)nn(-c2ccc(Cl)cc2Cl)c1-c1ccc(Cl)cc1` (centres unmarked) [Example 43, 2-(5-(4-chlorophenyl)-1-(2,4-dichlorophenyl)-4-(methylsulfinyl)-1H-pyrazol-3-yl)-5-(1-(trifluoromethyl)cyclobutyl)-1,3,4-oxadiazole]: the IC50 came to 8.92 nM. Regarding `C[S+]([O-])c1c(-c2nnc(C(C)(C)C)o2)nn(-c2ccccc2Cl)c1-c1ccc(Br)cc1` (centres unmarked) [Example 53, 2-(5-(4-bromophenyl)-1-(2-chlorophenyl)-4-(methylsulfinyl)-1H-pyrazol-3-yl)-5-tert-butyl-1,3,4-oxadiazole], the IC50 was determined as 15.6 nM. Take `C[S+]([O-])c1c(-c2nnc(C3(C(F)(F)F)CCC3)o2)nn(-c2ccccc2Cl)c1-c1ccc(Br)cc1` (centres unmarked) [Example 55, 2-(5-(4-bromophenyl)-1-(2-chlorophenyl)-4-(methylsulfinyl)-1H-pyrazol-3-yl)-5-(1-(trifluoromethyl)cyclobutyl)-1,3,4-oxadiazole]: the IC50 came to 6.51 nM. Still for that read-out and setting: the figure for `C[S+]([O-])c1c(-c2nnc(C(C)(C)C)s2)nn(-c2ccc(Cl)cc2Cl)c1-c1ccc(Cl)cc1` (centres unmarked) [Example 60, 2-tert-butyl-5-(5-(4-chlorophenyl)-1-(2,4-dichlorophenyl)-4-(methylsulfinyl)-1H-pyrazol-3-yl)-1,3,4-thiadiazole] is 19.1 nM; for `C[S+]([O-])c1c(-c2nnc(C3(C(F)(F)F)CC3)s2)nn(-c2ccc(Cl)cc2Cl)c1-c1ccc(Cl)cc1` (centres unmarked) [Example 61, 2-(5-(4-chlorophenyl)-1-(2,4-dichlorophenyl)-4-(methylsulfinyl)-1H-pyrazol-3-yl)-5-(1-(trifluoromethyl)cyclopropyl)-1,3,4-thiadiazole] it is 11.3 nM; for `C[S+]([O-])c1c(-c2nnc(C3(C(F)(F)F)CCC3)s2)nn(-c2ccc(Cl)cc2Cl)c1-c1ccc(Cl)cc1` (centres unmarked) [Example 62, 2-(5-(4-chlorophenyl)-1-(2,4-dichlorophenyl)-4-(methylsulfinyl)-1H-pyrazol-3-yl)-5-(1-(trifluoromethyl)cyclobutyl)-1,3,4-thiadiazole] it is 4.12 nM. On the same count and under the same terms, to `C[S+]([O-])c1c(-c2nnc(C3(c4ccc(Cl)cc4)CC3)s2)nn(-c2ccc(Cl)cc2Cl)c1-c1ccc(Cl)cc1` (centres unmarked) [Example 63, 2-(5-(4-chlorophenyl)-1-(2,4-dichlorophenyl)-4-(methylsulfinyl)-1H-pyrazol-3-yl)-5-(1-(4-chlorophenyl)cyclopropyl)-1,3,4-thiadiazole] belongs 11.8 nM; to `C[S+]([O-])c1c(-c2nnc(C3(C(F)(F)F)CCC3)s2)nn(-c2ccccc2Cl)c1-c1ccc(Cl)cc1` (centres unmarked) [Example 66, 2-(1-(2-chlorophenyl)-5-(4-chlorophenyl)-4-(methylsulfinyl)-1H-pyrazol-3-yl)-5-(1-(trifluoromethyl)cyclobutyl)-1,3,4-thiadiazole], 3.4 nM.

Consider `C[S+]([O-])c1c(-c2nnc(C(C)(C)C)s2)nn(-c2ccccc2Cl)c1-c1ccc(Br)cc1` (centres unmarked) [Example 72, 2-(5-(4-bromophenyl)-1-(2-chlorophenyl)-4-(methylsulfinyl)-1H-pyrazol-3-yl)-5-tert-butyl-1,3,4-thiadiazole], for which the IC50 came to 7.97 nM.

In the case of `C[S+]([O-])c1c(-c2nnc(C3(C(F)(F)F)CC3)s2)nn(-c2ccccc2Cl)c1-c1ccc(Br)cc1` (centres unmarked) [Example 73, 2-(5-(4-bromophenyl)-1-(2-chlorophenyl)-4-(methylsulfinyl)-1H-pyrazol-3-yl)-5-(1-(trifluoromethyl)cyclopropyl)-1,3,4-thiadiazole], the IC50 worked out at 6.08 nM. For the molecule `C[S+]([O-])c1c(-c2nnc(C3(C(F)(F)F)CCC3)s2)nn(-c2ccccc2Cl)c1-c1ccc(Br)cc1` (centres unmarked) [Example 74, 2-(5-(4-bromophenyl)-1-(2-chlorophenyl)-4-(methylsulfinyl)-1H-pyrazol-3-yl)-5-(1-(trifluoromethyl)cyclobutyl)-1,3,4-thiadiazole], the IC50 was found to be 2.32 nM. As to `CC(C)(C)c1nnc(-c2nn(-c3ccc(Cl)cc3Cl)c(-c3ccc(Cl)cc3)c2S(C)(=O)=O)o1` [Example 80, 2-tert-butyl-5-(5-(4-chlorophenyl)-1-(2,4-dichlorophenyl)-4-(methylsulfonyl)-1H-pyrazol-3-yl)-1,3,4-oxadiazole], the half-inhibitory concentration (IC50) is 15.2 nM. For the molecule `CS(=O)(=O)c1c(-c2nnc(C3(C(F)(F)F)CC3)o2)nn(-c2ccc(Cl)cc2Cl)c1-c1ccc(Cl)cc1` [Example 81, 2-(5-(4-chlorophenyl)-1-(2,4-dichlorophenyl)-4-(methylsulfonyl)-1H-pyrazol-3-yl)-5-(1-(trifluoromethyl)cyclopropyl)-1,3,4-oxadiazole], the IC50 was determined as 6.31 nM.

For the molecule `CS(=O)(=O)c1c(-c2nnc(C3(c4ccc(Cl)cc4)CC3)o2)nn(-c2ccc(Cl)cc2Cl)c1-c1ccc(Cl)cc1` [Example 83, 2-(5-(4-chlorophenyl)-1-(2,4-dichlorophenyl)-4-(methylsulfonyl)-1H-pyrazol-3-yl)-5-(1-(4-chlorophenyl)cyclopropyl)-1,3,4-oxadiazole], the IC50 was determined as 22 nM. Consider `CC(C)(C)c1nnc(-c2nn(-c3ccc(Cl)cc3Cl)c(-c3ccc(Br)cc3)c2S(C)(=O)=O)o1` [Example 88, 2-(5-(4-bromophenyl)-1-(2,4-dichlorophenyl)-4-(methylsulfonyl)-1H-pyrazol-3-yl)-5-tert-butyl-1,3,4-oxadiazole], for which the IC50 amounted to 14.2 nM. The same measure, in the same setting: the figure for `CS(=O)(=O)c1c(-c2nnc(C3(C(F)(F)F)CCC3)o2)nn(-c2ccc(Cl)cc2Cl)c1-c1ccc(Br)cc1` [Example 90, 2-(5-(4-bromophenyl)-1-(2,4-dichlorophenyl)-4-(methylsulfonyl)-1H-pyrazol-3-yl)-5-(1-(trifluoromethyl)cyclobutyl)-1,3,4-oxadiazole] is 7.34 nM; for `CC(C)(C)c1nnc(-c2nn(-c3ccccc3Cl)c(-c3ccc(Br)cc3)c2S(C)(=O)=O)o1` [Example 92, 2-(5-(4-bromophenyl)-1-(2-chlorophenyl)-4-(methylsulfonyl)-1H-pyrazol-3-yl)-5-tert-butyl-1,3,4-oxadiazole] it is 8.15 nM; for `CS(=O)(=O)c1c(-c2nnc(C3(C(F)(F)F)CCC3)o2)nn(-c2ccccc2Cl)c1-c1ccc(Br)cc1` [Example 94, 2-(5-(4-bromophenyl)-1-(2-chlorophenyl)-4-(methylsulfonyl)-1H-pyrazol-3-yl)-5-(1-(trifluoromethyl)cyclobutyl)-1,3,4-oxadiazole] it is 5.21 nM. Same read-out and setting: to `CC(C)(C)c1nnc(-c2nn(-c3ccc(Cl)cc3Cl)c(-c3ccc(Cl)cc3)c2S(C)(=O)=O)s1` [Example 100, 2-tert-butyl-5-(5-(4-chlorophenyl)-1-(2,4-dichlorophenyl)-4-(methylsulfonyl)-1H-pyrazol-3-yl)-1,3,4-thiadiazole] belongs 5.84 nM; to `CS(=O)(=O)c1c(-c2nnc(C3(C(F)(F)F)CC3)s2)nn(-c2ccc(Cl)cc2Cl)c1-c1ccc(Cl)cc1` [Example 101, 2-(5-(4-chlorophenyl)-1-(2,4-dichlorophenyl)-4-(methylsulfonyl)-1H-pyrazol-3-yl)-5-(1-(trifluoromethyl)cyclopropyl)-1,3,4-thiadiazole], 22 nM; to `CS(=O)(=O)c1c(-c2nnc(C3(C(F)(F)F)CCC3)s2)nn(-c2ccc(Cl)cc2Cl)c1-c1ccc(Cl)cc1` [Example 102, 2-(5-(4-chlorophenyl)-1-(2,4-dichlorophenyl)-4-(methylsulfonyl)-1H-pyrazol-3-yl)-5-(1-(trifluoromethyl)cyclobutyl)-1,3,4-thiadiazole], 3.74 nM. On to `CS(=O)(=O)c1c(-c2nnc(C3(c4ccc(Cl)cc4)CC3)s2)nn(-c2ccc(Cl)cc2Cl)c1-c1ccc(Cl)cc1` [Example 103, 2-(5-(4-chlorophenyl)-1-(2,4-dichlorophenyl)-4-(methylsulfonyl)-1H-pyrazol-3-yl)-5-(1-(4-chlorophenyl)cyclopropyl)-1,3,4-thiadiazole], for which the IC50 worked out at 4.34 nM.

Regarding `CC(C)(C)c1nnc(-c2nn(-c3ccccc3Cl)c(-c3ccc(Cl)cc3)c2S(C)(=O)=O)s1` [Example 104, 2-tert-butyl-5-(1-(2-chlorophenyl)-5-(4-chlorophenyl)-4-(methylsulfonyl)-1H-pyrazol-3-yl)-1,3,4-thiadiazole], the IC50 is 7.18 nM.

As for `CS(=O)(=O)c1c(-c2nnc(C3(C(F)(F)F)CCC3)s2)nn(-c2ccccc2Cl)c1-c1ccc(Cl)cc1` [Example 106, 2-(1-(2-chlorophenyl)-5-(4-chlorophenyl)-4-(methylsulfonyl)-1H-pyrazol-3-yl)-5-(1-(trifluoromethyl)cyclobutyl)-1,3,4-thiadiazole], the half-maximal inhibitory concentration (IC50) amounted to 0.87 nM.
